In US9586986B2, “Substituted 7-deazapurine ribonucleosides for therapeutic uses” (Institute of Organic Chemistry and Biochemistry ASCR, v.v.i., priority 2014, dated 2017) one finds CC50 and IC50 data, which are given here for five molecules.

Holding throughout (format): cell-based
The test system of data set [1] is Huh-7 cells harboring replicon 2A. In words: Cytotoxicity in replicon 2A cells. The note with it: HCV subtype 2A replicon. The protocol: (§1) Compounds were also tested in Huh-7 cells harboring sub-genomic reporter replicons derived from HCV subtypes 1B and 2A (ref.: Stuyver, L. J.; Whitaker, T.; McBrayer, T. R.; Hernandez-Santiago, B. I.; Lostia, S.; Tharnish, P. M.; Ramesh, M.; Chu, C. K.; Jordan, R.; Shi, J. X.; Rachakonda, S.; Watanabe, K. A.; Otto, M. J.; Schinazi, R. F. Antimicrob. Agents Chemother. 2003, 47, 244-254).
A general note: A replicon is a self-replicating genome or part of one, used to study replication in cells.

The next data set has as its system K562-TAX. Put plainly: Cytostatic/cytotoxic MTT assay, K562-TAX. The note with it: Homo sapiens, 72 h, read-out: MTT, IC50 K562-TAX. A digest of the protocol:
(§2)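 Human cancer lines, including daunorubicin-resistant CEM-DNR (mrp-1/mdr-1 overexpressing) and paclitaxel-resistant K562-TAX (mdr-1), seeded 25,000-30,000 cells/well, pre-incubated 24 h, then treated in duplicate with four-fold dilutions for 72 h at 37° C, 5% CO2. MTT read-out at 540 nm; IC50 from dose-response curves.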
Background: Formazan colour is commonly taken as a measure of viable cells.

The test system of another data set is K562. In words: Cytostatic/cytotoxic MTT assay, K562. The note with it: Homo sapiens, read-out: MTT, IC50 K562. A digest of the protocol: (§3)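 Cells were seeded at 25,000-30,000 per well and pre-incubated 24 h before addition of four-fold compound dilutions in duplicate. After 72 h at 37 °C in 5% CO2, MTT was added for 1-4 h, formazan dissolved in 10% SDS (pH 5.5) overnight, and OD read at 540 nm; IC50 taken from dose-response curves.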

In a further data set the test system is A549. Put plainly: Cytostatic/cytotoxic MTT assay, A549. The note with it: Homo sapiens, read-out: MTT, IC50 A549. Put shortly:
as §3

In data set [2] the test system is Huh-7 cells harboring replicon 1B. Put plainly: Cytotoxicity in replicon 1B cells. The note with it: HCV subtype 1B replicon. The protocol: as §1
The test system of a further data set is HCT116p53-/-. Put plainly: Cytostatic/cytotoxic MTT assay, HCT116p53-/-. The note with it: Homo sapiens, read-out: MTT, IC50 HCT116 p53-/-. Put shortly: as §2
Another data set concerns MRC-5. Put plainly: Cytostatic/cytotoxic MTT assay, MRC-5 fibroblasts. The note with it: Homo sapiens, read-out: MTT, IC50 MRC-5. Put shortly: as §3
Where [3] appears, read: MRC5, non-malignant fibroblasts, 72 h.

Where two headings read alike, the source gives them in different places.

For orientation: CC50 means the concentration at which the toxic effect on the cells reaches its halfway point. Low readings indicate greater toxicity to the cells, high ones lower toxicity to the cells. As for `COc1ncnc2c1ccn2[C@@H]1O[C@H](CO)[C@@H](O)[C@H]1O` [RC1, reference compound], the cytotoxic concentration (CC50) in data set [1] and in data set [2] was > 44 µM in each case. The IC50 was > 20 µM in the data set with K562-TAX (paclitaxel resistant subline); > 20 µM in the data set with K562 (K562, 72 h incubation); > 20 µM in the data set on A549 (A549, 72 h incubation); > 20 µM in the data set on HCT116p53-/- (HCT-116, 72 h incubation); > 100 µM in the data set on MRC-5 (setting [3]).

With `CSc1ncnc2c1ccn2[C@@H]1O[C@H](CO)[C@@H](O)[C@H]1O` [RC2, reference compound], the cytotoxic concentration (CC50) in data set [1] and in data set [2] was > 44 µM throughout. Besides, the IC50 was 0.1 µM in the data set on K562-TAX; > 20 µM in the data set on K562 (K562, 72 h); > 20 µM in the data set on A549 (A549, 72 h); > 20 µM with HCT116p53-/- (HCT-116, 72 h); > 100 µM in the data set on MRC-5 (MRC5, 72 h).

Turning to `CNc1ncnc2c1ccn2[C@@H]1O[C@H](CO)[C@@H](O)[C@H]1O` [RC3, reference compound], the CC50 in data set [1] and in data set [2] was > 44 µM throughout. In addition, the IC50 is 0.92 µM with K562-TAX (paclitaxel resistant subline); > 20 µM in the data set on K562 (K562, 72 h incubation); > 20 µM in the data set on A549 (A549, 72 h incubation); > 20 µM in the data set with HCT116p53-/- (HCT-116, 72 h incubation); 97.8 µM with MRC-5 (setting [3]).

Take `CN(C)c1ncnc2c1ccn2[C@@H]1O[C@H](CO)[C@@H](O)[C@H]1O` [RC4, reference compound]: the CC50 in data set [1] and in data set [2] was > 44 µM each time. The IC50 was 0.89 µM with K562-TAX (paclitaxel resistant subline); 5.28 µM in the data set with K562 (K562, 72 h incubation); > 20 µM with A549 (A549, 72 h incubation); 5.09 µM in the data set on HCT116p53-/- (HCT-116, 72 h incubation); 58.2 µM in the data set with MRC-5 (setting [3]).

Take `Cc1ncnc2c1ccn2[C@@H]1O[C@H](CO)[C@@H](O)[C@H]1O` [RC5, 4-Methyl-7-(β-D-ribofuranosyl)-7H-pyrrolo[2,3-d]pyrimidine, reference compound]: the CC50 in data set [1] came out at 0.12 µM; in data set [2] it was 0.23 µM. In addition, the IC50 in the data set on K562-TAX turned out to be 0.05 µM; in the data set on K562 (K562, 72 h), 0.01 µM; in the data set on A549 (A549, 72 h), 0.03 µM; in the data set on HCT116p53-/- (HCT-116, 72 h), 0.06 µM; with MRC-5 (MRC5, 72 h), 0.09 µM.
